Patent US7560121B1 (LTS Lohmann Therapie-Systeme AG, priority 1999, dated 2009)
Counter-ions that a name gives are not always drawn.

How the values were obtained:
[1] = Solubility of fluphenazine dihydrochloride in poly(meth)acrylate pressure-sensitive adhesives; assay type: physicochemical
Excerpt: Addition of Eudragit E100 (Röhm Pharma GmbH) was therefore provided for in all cases. This poly-(meth)acrylate has trialkylamino groups in its lateral chain and is capable of functioning as an ion-exchange resin. In this way, the chloride ions of the fluphenazine dihydrochloride are bonded to Eudragit E100 while protons are accepted simultaneously, with fluphenazine being formed as a free base in a certain equilibrium. Advantageous is an at least equimolar ratio of Eudragit E100 and fluphenazine dihydrochloride, i.e. of amounts by weight having the same equivalent weight calculated as potassium hydroxide.

[2] = In vitro skin permeation through human epidermis (modified Franz cell, HPLC); assay type: in vitro ADME; conditions: 32° C., Oppanol-based matrix with Eudragit E100 and oleic acid, n=3
Experimental: Skin permeability was examined in vitro using full thickness cow udder skin and human epidermis, the latter having been separated from human full-thickness skin by heat separation.
The tests were carried out at 32° C. in a suitable permeation device (modified Franz cell), and fluphenazine was measured in the resultant samples using a suitable HPLC method. All indicated values are based on n=3 samples.

[3] = in vivo; cited from earlier work

Structure (SMILES)	solubility in Durotak 387-2051 ([1]; with addition of Eudragit E100)	solubility in Durotak 387-2287 ([1]; with addition of Eudragit E100)	solubility in poly(meth)acrylate adhesive polymers or the organic solvents required for processing ([1]; without Eudragit E100, result in words)	maximum flow rate of fluphenazine base [2]	half-life in blood plasma [3]
OCCN1CCN(CCCN2c3ccccc3Sc3ccc(C(F)(F)F)cc32)CC1 [fluphenazine dihydrochloride]	at least 15 %-wt.	at least 10 %-wt.	almost insoluble		
OCCN1CCN(CCCN2c3ccccc3Sc3ccc(C(F)(F)F)cc32)CC1 [fluphenazine]				2.9 μg/h·cm^2	15 h
